# Assay results as given in ChEMBL document CHEMBL3994622, “Design and synthesis of new RAF kinase-inhibiting antiproliferative quinoline derivatives. Part 2: Diarylurea derivatives” (Eur J Med Chem, 2017).
# Key:
# HOP-62 = experiment: Growth inhibition of human HOP62 cells incubated for 48 hrs by sulforhodamine B assay; assay type: functional; settings: HOP-62, 48 h
# A549 = experiment: Growth inhibition of human A549/ATCC cells assessed as cell growth at 10 uM incubated for 48 hrs by sulforhodamine B assay relative to control; assay type: functional; settings: A549, 48 h, read-out: Activity
# CAKI-1 [1] = experiment: Growth inhibition of human Caki1 cells incubated for 48 hrs by sulforhodamine B assay; assay type: functional; settings: CAKI-1, 48 h
# SK-MEL-5 = experiment: Growth inhibition of human SK-MEL-5 cells assessed as cell growth at 10 uM incubated for 48 hrs by sulforhodamine B assay relative to control; assay type: functional; settings: SK-MEL-5, 48 h, read-out: Activity
# RXF 393 = experiment: Growth inhibition of human RXF393 cells assessed as cell growth at 10 uM incubated for 48 hrs by sulforhodamine B assay relative to control; assay type: functional; settings: RXF 393, 48 h, read-out: Activity
# NCI-H460 = experiment: Growth inhibition of human NCI-H460 cells assessed as cell growth at 10 uM incubated for 48 hrs by sulforhodamine B assay relative to control; assay type: functional; settings: NCI-H460, 48 h, read-out: Activity
# MDA-MB-231 [2] = experiment: Growth inhibition of human MDA-MB-231 cells incubated for 48 hrs by sulforhodamine B assay; assay type: functional; settings: MDA-MB-231, 48 h
# IGROV-1 = experiment: Growth inhibition of human IGROV1 cells assessed as cell growth at 10 uM incubated for 48 hrs by sulforhodamine B assay relative to control; assay type: functional; settings: IGROV-1, 48 h, read-out: Activity
# OVCAR-5 = experiment: Growth inhibition of human OVCAR5 cells assessed as cell growth at 10 uM incubated for 48 hrs by sulforhodamine B assay relative to control; assay type: functional; settings: OVCAR-5, 48 h, read-out: Activity
# MCF7 [3] = experiment: Growth inhibition of human MCF7 cells assessed as cell growth at 10 uM incubated for 48 hrs by sulforhodamine B assay relative to control; assay type: functional; settings: MCF7, 48 h, read-out: Activity
# NCI/ADR-RES = experiment: Growth inhibition of human NCI/ADR-RES cells assessed as cell growth at 10 uM incubated for 48 hrs by sulforhodamine B assay relative to control; assay type: functional; settings: read-out: Activity
# SK-MEL-2 = experiment: Growth inhibition of human SK-MEL-2 cells assessed as cell growth at 10 uM incubated for 48 hrs by sulforhodamine B assay relative to control; assay type: functional; settings: SK-MEL-2, 48 h, read-out: Activity
# SK-OV-3 = experiment: Growth inhibition of human SKOV3 cells assessed as cell growth at 10 uM incubated for 48 hrs by sulforhodamine B assay relative to control; assay type: functional; settings: SK-OV-3, 48 h, read-out: Activity
# MCF7 [4] = experiment: Growth inhibition of human MCF7 cells incubated for 48 hrs by sulforhodamine B assay; assay type: functional; settings: MCF7, 48 h
# CAKI-1 [5] = experiment: Growth inhibition of human Caki1 cells assessed as cell growth at 10 uM incubated for 48 hrs by sulforhodamine B assay relative to control; assay type: functional; settings: CAKI-1, 48 h, read-out: Activity
# COLO 205 = experiment: Growth inhibition of human COLO205 cells assessed as cell growth at 10 uM incubated for 48 hrs by sulforhodamine B assay relative to control; assay type: functional; settings: COLO 205, 48 h, read-out: Activity
# NCI-H522 = experiment: Growth inhibition of human NCI-H522 cells assessed as cell growth at 10 uM incubated for 48 hrs by sulforhodamine B assay relative to control; assay type: functional; settings: NCI-H522, 48 h, read-out: Activity
# EKVX = experiment: Growth inhibition of human EKVX cells assessed as cell growth at 10 uM incubated for 48 hrs by sulforhodamine B assay relative to control; assay type: functional; settings: read-out: Activity
# MDA-MB-231 [6] = experiment: Growth inhibition of human MDA-MB-231 cells assessed as cell growth at 10 uM incubated for 48 hrs by sulforhodamine B assay relative to control; assay type: functional; settings: MDA-MB-231, 48 h, read-out: Activity
# T47D [7] = experiment: Growth inhibition of human T47D cells assessed as cell growth at 10 uM incubated for 48 hrs by sulforhodamine B assay relative to control; assay type: functional; settings: read-out: Activity
# SNB-19 = experiment: Growth inhibition of human SNB19 cells assessed as cell growth at 10 uM incubated for 48 hrs by sulforhodamine B assay relative to control; assay type: functional; settings: SNB-19, 48 h, read-out: Activity
# LOX IMVI = experiment: Growth inhibition of human LOXIMVI cells assessed as cell growth at 10 uM incubated for 48 hrs by sulforhodamine B assay relative to control; assay type: functional; settings: read-out: Activity
# A498 = experiment: Growth inhibition of human A498 cells assessed as cell growth at 10 uM incubated for 48 hrs by sulforhodamine B assay relative to control; assay type: functional; settings: A498, 48 h, read-out: Activity
# ACHN = experiment: Growth inhibition of human ACHN cells assessed as cell growth at 10 uM incubated for 48 hrs by sulforhodamine B assay relative to control; assay type: functional; settings: read-out: Activity
# HCC 2998 = experiment: Growth inhibition of human HCC2998 cells assessed as cell growth at 10 uM incubated for 48 hrs by sulforhodamine B assay relative to control; assay type: functional; settings: HCC 2998, 48 h, read-out: Activity
# T47D [8] = experiment: Growth inhibition of human T47D cells incubated for 48 hrs by sulforhodamine B assay; assay type: functional
# OVCAR-3 = experiment: Growth inhibition of human OVCAR3 cells assessed as cell growth at 10 uM incubated for 48 hrs by sulforhodamine B assay relative to control; assay type: functional; settings: OVCAR-3, 48 h, read-out: Activity
# HCT-15 = experiment: Growth inhibition of human HCT15 cells incubated for 48 hrs by sulforhodamine B assay; assay type: functional; settings: HCT-15, 48 h
# SF-268 = experiment: Growth inhibition of human SF268 cells incubated for 48 hrs by sulforhodamine B assay; assay type: functional; settings: SF-268, 48 h
# SW-620 = experiment: Growth inhibition of human SW620 cells assessed as cell growth at 10 uM incubated for 48 hrs by sulforhodamine B assay relative to control; assay type: functional; settings: SW-620, 48 h, read-out: Activity
# BT-549 = experiment: Growth inhibition of human BT549 cells assessed as cell growth at 10 uM incubated for 48 hrs by sulforhodamine B assay relative to control; assay type: functional; settings: BT-549, 48 h, read-out: Activity
# RPMI-8226 = experiment: Growth inhibition of human RPMI8226 cells assessed as cell growth at 10 uM incubated for 48 hrs by sulforhodamine B assay relative to control; assay type: functional; settings: RPMI-8226, 48 h, read-out: Activity
# [9] = target: RAF proto-oncogene serine/threonine-protein kinase (Homo sapiens, UniProt P04049); experiment: Inhibition of human c-RAF at 10 uM using MEK1 as substrate in presence of [33P]ATP by Hotspot assay relative to control
# [10] = read-out: LC50 (the source's name)
# RAF proto-oncogene serine/threonine-protein kinase, sequence (P04049 whole entry): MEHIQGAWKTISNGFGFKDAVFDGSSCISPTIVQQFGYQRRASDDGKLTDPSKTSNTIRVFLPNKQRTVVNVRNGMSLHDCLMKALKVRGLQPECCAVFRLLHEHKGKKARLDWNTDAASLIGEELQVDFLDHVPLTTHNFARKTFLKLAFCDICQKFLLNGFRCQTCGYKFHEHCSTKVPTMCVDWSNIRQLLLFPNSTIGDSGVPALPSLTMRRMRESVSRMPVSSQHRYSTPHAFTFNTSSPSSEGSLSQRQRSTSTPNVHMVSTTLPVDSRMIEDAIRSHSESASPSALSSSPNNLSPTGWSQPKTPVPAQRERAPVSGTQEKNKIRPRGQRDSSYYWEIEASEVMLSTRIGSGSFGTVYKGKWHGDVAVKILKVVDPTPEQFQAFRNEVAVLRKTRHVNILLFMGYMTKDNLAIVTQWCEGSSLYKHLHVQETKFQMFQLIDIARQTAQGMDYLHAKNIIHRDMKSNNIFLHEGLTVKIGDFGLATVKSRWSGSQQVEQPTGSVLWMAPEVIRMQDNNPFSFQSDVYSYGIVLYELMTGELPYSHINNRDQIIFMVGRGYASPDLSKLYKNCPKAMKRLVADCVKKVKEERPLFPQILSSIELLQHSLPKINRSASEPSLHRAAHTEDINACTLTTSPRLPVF
smiles,measurement,setting,value
COc1cc2cc(Oc3ccc(NC(=O)Nc4cccc(C(F)(F)F)c4)cc3)c(C)nc2cc1OC,GI50,HOP-62,2.33 µM
same,TGI,HOP-62,8.44 µM
same,CC50,HOP-62; [10],24.1 µM
same,growth at 10 µM,A549,3.09%
same,GI50,CAKI-1 [1],1.32 µM
same,TGI,CAKI-1 [1],4.29 µM
same,CC50,CAKI-1 [1]; [10],48.6 µM
same,growth at 10 µM,SK-MEL-5,-86.1%
same,growth at 10 µM,RXF 393,-13.1%
same,growth at 10 µM,NCI-H460,2.68%
same,GI50,MDA-MB-231 [2],1.13 µM
same,TGI,MDA-MB-231 [2],4.15 µM
same,CC50,MDA-MB-231 [2]; [10],18.6 µM
same,growth at 10 µM,IGROV-1,8.77%
same,growth at 10 µM,OVCAR-5,27.8%
same,growth at 10 µM,MCF7 [3],6.81%
same,growth at 10 µM,NCI/ADR-RES,6.98%
same,growth at 10 µM,SK-MEL-2,-35.8%
same,growth at 10 µM,SK-OV-3,3.35%
same,GI50,MCF7 [4],1.34 µM
same,TGI,MCF7 [4],5.43 µM
same,CC50,MCF7 [4]; [10],18.9 µM
same,growth at 10 µM,CAKI-1 [5],9.13%
same,growth at 10 µM,COLO 205,-20.2%
same,growth at 10 µM,NCI-H522,-17.4%
same,growth at 10 µM,EKVX,15.4%
same,growth at 10 µM,MDA-MB-231 [6],-8.32%
same,growth at 10 µM,T47D [7],27.8%
same,growth at 10 µM,SNB-19,31.4%
same,growth at 10 µM,LOX IMVI,9.78%
same,growth at 10 µM,A498,21.7%
same,growth at 10 µM,ACHN,11.2%
same,growth at 10 µM,HCC 2998,25.4%
same,GI50,T47D [8],1.61 µM
same,TGI,T47D [8],6.68 µM
same,CC50,T47D [8]; [10],> 50 µM
same,growth at 10 µM,OVCAR-3,-0.54%
same,GI50,HCT-15,1.85 µM
same,"LC50 (lethal concentration, 50% net cell kill)",HCT-15,> 50 µM
same,TGI,HCT-15,22.2 µM
same,GI50,SF-268,2.57 µM
same,LC50 (50% lethal concentration),SF-268,> 50 µM
same,TGI,SF-268,15.5 µM
same,growth at 10 µM,SW-620,17.5%
same,growth at 10 µM,BT-549,-8.13%
same,growth at 10 µM,RPMI-8226,-5.94%
same,inhibition,[9],99.2%
